The values below come from US20140143910A1, “COMPOSITION THAT AUGMENTS PLANT DISEASE RESISTANCE AND/OR BRANCHING” (Riken, priority 2011, published 2014).

This assay has as its system PR1 gene. The experiment in a line: PR1 gene expression by real-time PCR in rosette leaves of wild-type strain and bil3 mutant, treated or untreated with brassinolide. The class given is in vivo, Arabidopsis thaliana. The note with it: BL-treated bil3 mutant (BIL3 gene-overexpressing), compared with the wild-type strain; FIG. 7. The protocol:
Individuals of the wild-type strain and the bil3 mutant grown in the same way as in Example 1 were treated or untreated with brassinolide (BL), one type of BR, to prepare samples. Total RNA was extracted from the rosette leaf of each strain using RNeasy Plant Mini Kit (Qiagen N.V.). Next, cDNA was synthesized from the extracted total RNA using PrimeScript First-Strand cDNA Synthesis Kit (Takara Bio Inc.). Specific procedures for the total RNA extraction and the cDNA synthesis followed the protocol included in each kit. Subsequently, the expression of the PR1 gene was analyzed by real-time PCR with the synthesized cDNA as a template using primers PR1-RT-F represented by SEQ ID NO: 46 and PR1-RT-R represented by SEQ ID NO: 47, SYBR Premix EX Taq kit (Takara Bio Inc.) and a real-time PCR apparatus Thermal Cycler Dice (Takara Bio Inc.).

`CC(C)[C@H](C)[C@@H](O)[C@H](O)[C@@H](C)[C@H]1CC[C@H]2[C@@H]3COC(=O)[C@H]4C[C@H](O)[C@H](O)C[C@]4(C)[C@H]3CC[C@]12C` [BL, brassinolide]: the “expression level of the PR1 gene, relative value with the BL-untreated wild-type strain as 1” value is “approximately 40 times”.
